This note sets out measurements from patent publication US11446298B2, “Pyrimidine derivatives” (Idorsia Pharmaceuticals Ltd, priority 2017, dated 2022).

Holding throughout (type): cell-based
For one test, the target named is T1, PTGER2 (EP2) (Homo sapiens, UniProt P43116).
T1 construct: host or cells: HEK 293 (PathHunter, stably transfected)
Briefly: hEP2 b-Arrestin Assay (PathHunter HEK 293 PTGER2 b-arrestin cells, PGE2 5 μM). The following applies: antagonistic activity, beta-arrestin assay, HEK 293 PTGER2 cells, PGE2 5 μM (EC80); read-out: hEP2 b-arr IC50. The protocol: (§1) The antagonistic activities of the compounds of formula (I) on the EP2 and EP4 receptors are also determined in accordance with the following experimental method.
The assay is using the PathHunter™ HEK 293 PTGER2 and PTGER4 b-arrestin cell lines from DiscoverX. The system is based on the Enzyme Fragment Complementation Technology. Two complementing fragments of the b-galactosidase enzyme are expressed within stably transfected cells. The larger portion of b-gal, termed EA for Enzyme Acceptor, is fused to the C-terminus of b-arrestin 2. The smaller fragment, termed ProLink™ tag, is fused to PTGER2 (EP2) or PTRGER4 (EP4) at the C-terminus. Upon activation, b-arrestin is recruited which forces the interaction of ProLink and EA, allowing complementation of the two fragments of b-gal and the formation of a functional enzyme which is capable of hydrolysing the substrate and generating a chemiluminescent signal.
The HEK 293 PTGER2 b-arrestin cells (DiscoverX 93-021-4C1) are detached from culture dishes with a cell dissociation buffer (Invitrogen, 13151-014), and collected in growing medium (GM: DMEM+Glutamax-I (Invitrogen 32430)/10% FCS, 1% Penicilin/streptomycin). 5000 cells per well of a 384 well plate (white with white bottom Greiner 781080) are seeded in 20 μl per well of GM. Plate is incubated at 37° C., 5% CO2 for 24 hours.
Stock solutions of test compounds are made at a concentration of 10 mM in DMSO, and serially diluted in DMSO to concentrations required for inhibition dose response curves (tested concentration range 10 μM-2 nM or 1 μM-0.2 nM).
PGE2 (Cayman 14010, stock solution: 10 mM in DMSO) is used as agonist at 5 μM final concentration, corresponding to EC80.
Five microliters of diluted compounds are transferred into the assay plate. Plate is pre-incubated 15 minutes at 37° C. Then five microliters of PGE2 (final conc. 5 μM) are transferred into the assay plate. Plate is incubated 120 minutes at 37° C.
PathHunter Glo Detection Kit components are thawed and mix according to manufacturer's instructions: 1 part Galacton Star Substrate with 5 parts Emerald II™ Solution, and 19 parts of PathHunter Cell Assay Buffer, respectively. Twelve μl of reagent are transferred to the assay plate and incubate for 1 hour at room temperature in the dark. Luminescence counts are read on a BMG Fluostar Optima reader according to manufacturer's instructions.
For each compound concentration calculate of the percentage of activity compared to DMSO control value as average ±STDEV. (each concentration is measured in duplicate)
(§2) IC50 values and curves are generated with XLfit software (IDBS) using Dose-Response One Site model 203. When compounds were measured multiple times, mean values are given.

The next test deals with T2, EP4 (Homo sapiens, UniProt P35408).
T2 construct: BT549 breast cancer cells, express high endogenous EP4 levels and very low EP2 levels; host or cells: BT549 breast cancer cells
T2 sequence (P35408 whole entry): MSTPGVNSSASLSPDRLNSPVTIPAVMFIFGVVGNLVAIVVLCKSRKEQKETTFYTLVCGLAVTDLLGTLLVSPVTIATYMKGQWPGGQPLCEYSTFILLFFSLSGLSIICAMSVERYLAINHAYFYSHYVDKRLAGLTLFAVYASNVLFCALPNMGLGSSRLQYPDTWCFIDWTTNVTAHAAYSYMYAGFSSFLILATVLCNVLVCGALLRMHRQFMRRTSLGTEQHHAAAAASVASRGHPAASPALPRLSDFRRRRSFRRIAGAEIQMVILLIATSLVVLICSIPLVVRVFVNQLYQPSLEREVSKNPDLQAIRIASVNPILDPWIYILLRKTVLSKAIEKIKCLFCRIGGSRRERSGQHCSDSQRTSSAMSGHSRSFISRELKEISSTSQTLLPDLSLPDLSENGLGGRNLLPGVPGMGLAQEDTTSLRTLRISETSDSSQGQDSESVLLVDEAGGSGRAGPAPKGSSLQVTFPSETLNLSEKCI
Description: hEP4 cAMP Assay (BT549 breast cancer cells, HTRF cAMP, PGE2 6 nM). The following applies: antagonistic activity, PGE2 6 nM (EC80). As to the method: as §1
(§3) Human tumor cell lines expressing endogenously either EP4 or EP2 are used and cAMP accumulation in cells upon PGE2 stimulation is monitored. SF295 glioblastoma cells express high endogenous EP2 and no EP4, whereas BT549 breast cancer cells, express high endogenous EP4 levels and very low EP2 levels.
(§4) As a detection method for cAMP the HTRF (homogeneous time resolved fluorescence) Cisbio kit (HTRF cAMP dynamic 2 kit 20′000 tests Cisbio Cat. #62AM4PEC) was used, which is based on a competitive immunoassay using a Cryptate-labeled anti-cAMP antibody and d2-labeled cAMP. Native cAMP produced by cells or unlabeled cAMP (for the standard curve) compete with exogenously added d2-labeled cAMP (acceptor) for binding to monoclonal anti-cAMP-Eu3+Cryptate (donor). A FRET signal (Fluorescence Resonance Energy Transfer) is obtained only if the labeled anti-cAMP antibody binds the d2 labelled cAMP, thus the specific signal (i.e. energy transfer) is inversely proportional to the concentration of cAMP in the standard or sample.
The BT549 cells (NCI/No. 0507282) are detached from culture dishes with a cell dissociation buffer (Invitrogen, 13151-014), and collected in growing medium (GM: RPMI1640 (Invitrogen 21875)/10% FCS, 1% Penicilin/streptomycin). Cells are counted washed and resuspended in assay buffer (AB; HBSS, 20 mM HEPES, 0.2% BSA; 2 mM IBMX). 4′000 cells in 5 μL of AB are seeded per well of a small volume 384 well plate (black with flat bottom, Greiner 784076).
(§5) Stock solutions of test compounds are made at a concentration of 10 mM in DMSO, and serially diluted in DMSO to concentrations required for inhibition dose response curves (tested concentration range 30 μM-0.4 nM; 30 μM-0.015 nM or 1 μM-0.01 nM).
PGE2 (Cayman 14010, stock solution: 6 uM in DMSO) is used as agonist at 6 nM final concentration, corresponding to EC80.
2.5 μL of diluted compounds are transferred into the assay plate. Plate is pre-incubated 45 minutes at room temperature. Subsequently, 2.5 μL of PGE2 (final conc. 6 nM) are transferred into the assay plate. Plate is incubated 30 minutes at room temperature. 5 μL of each donor (anti-cAMP cryptate) and acceptor (cAMP-d2) are added and the plate is incubated another hour at room temperature in the dark and then read using a BMG LABTECH PHERAstar reader (Excitation: 337 nm, Emission: 620 and 665 nm).
(§6) The obtained Delta F (fluorescence) values (665 nm/620 nM) are converted into % cAMP values using the measurements of the cAMP calibrator provided in the kit. For each compound concentration the percentage of cAMP compared to DMSO control value as average ±STDEV (each concentration is measured in duplicate) is calculated.
as §2
(In general: Time-resolved FRET reads energy transfer from a long-lived donor to a nearby acceptor.)

A further test deals with T3, EP2 (Homo sapiens, UniProt P43116).
T3 construct: SF295 glioblastoma cells express high endogenous EP2 and no EP4; host or cells: SF295 glioblastoma cells
T3 sequence (P43116 whole entry): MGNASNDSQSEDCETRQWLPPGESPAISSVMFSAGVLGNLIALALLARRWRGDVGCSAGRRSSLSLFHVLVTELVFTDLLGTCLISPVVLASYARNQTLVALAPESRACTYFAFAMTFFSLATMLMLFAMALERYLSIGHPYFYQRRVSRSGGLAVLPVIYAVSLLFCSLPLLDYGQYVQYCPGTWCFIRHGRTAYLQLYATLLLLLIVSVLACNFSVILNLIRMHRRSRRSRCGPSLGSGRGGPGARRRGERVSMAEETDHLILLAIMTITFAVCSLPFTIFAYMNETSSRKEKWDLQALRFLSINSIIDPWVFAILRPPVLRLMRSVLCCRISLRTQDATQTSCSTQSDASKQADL
Description: hEP2 cAMP Assay (SF295 glioblastoma cells, HTRF cAMP, PGE2 75 nM). The conditions noted are these: antagonistic activity, PGE2 75 nM (EC80). The protocol:
as §1, §3, §4
The SF295 cells (NCI/No. 0503170) are detached from culture dishes with a cell dissociation buffer (Invitrogen, 13151-014), and collected in growing medium (GM: RPM11640 (Invitrogen 21875)/10% FCS, 1% Penicilin/streptomycin). Cells are counted washed and resuspended in assay buffer (AB; HBSS, 20 mM HEPES, 0.2% BSA; 2 mM IBMX). 4′000 cells in 5 μL of AB are seeded per well of a small volume 384 well plate (black with flat bottom, Greiner 784076).
as §5
PGE2 (Cayman 14010, stock solution: 75 μM in DMSO) is used as agonist at 75 nM final concentration, corresponding to EC80.
2.5 μL of diluted compounds are transferred into the assay plate. Plate is pre-incubated 45 minutes at room temperature. Subsequently, 2.5 μL of PGE2 (final conc. 75 nM) are transferred into the assay plate. Plate is incubated 30 minutes at room temperature. Five μL of each donor (anti-cAMP cryptate) and acceptor (cAMP-d2) are added and the plate is incubated another hour at room temperature in the dark and then read using a BMG LABTECH PHERAstar reader (Excitation: 337 nm, Emission: 620 and 665 nm).
as §6, §2

T1 sequence (P43116 whole entry): as above

Consider `CCOc1cc(-c2cc(NCCc3c(OC)ccc4ccccc34)ncn2)ccc1C(=O)O` [Example 3, 2-Ethoxy-4-{6-[2-(2-methoxy-naphthalen-1-yl)-ethylamino]-pyrimidin-4-yl}-benzoic acid], for which the IC50 (commonly the concentration at which inhibition is half-maximal) at PTGER2 (EP2) came to 17 nM; against EP4, 292 nM; against EP2, 11 nM.

Take `CCOc1cc(-c2cc(NCCc3c(Br)ccc4ccccc34)ncn2)ccc1C(=O)O` [Example 7, 4-{6-[2-(2-Bromo-naphthalen-1-yl)-ethylamino]-pyrimidin-4-yl}-2-ethoxy-benzoic acid]: the IC50 at PTGER2 (EP2) is 22 nM; against EP4, 909 nM; on EP2 it was 67 nM.

With `O=C(O)c1ccc(-c2cc(NCCc3cccc4ccccc34)ncn2)cc1OC1CCC1` [Example 8, 2-Cyclobutoxy-4-[6-(2-naphthalen-1-yl-ethylamino)-pyrimidin-4-yl]-benzoic acid], the IC50 amounted to 71 nM at PTGER2 (EP2), 568 nM on EP4 and 133 nM against EP2.

Regarding `Cc1ccc(CCNc2cc(-c3ccc(C(=O)O)c(OC4CCC4)c3)ncn2)c2ccccc12` [Example 17, 2-Cyclobutoxy-4-{6-[2-(4-methyl-naphthalen-1-yl)-ethylamino]-pyrimidin-4-yl}-benzoic acid], the IC50 came to 95 nM on PTGER2 (EP2), 270 nM against EP4 and 281 nM on EP2.

As for `CCOc1cc(-c2cc(NCCc3ccc(F)c4ccccc34)ncn2)ccc1C(=O)O` [Example 19, 2-Ethoxy-4-{6-[2-(4-fluoro-naphthalen-1-yl)-ethylamino]-pyrimidin-4-yl}-benzoic acid], the figures for the IC50 at PTGER2 (EP2), against EP4 and against EP2 were 129 nM, 646 nM and 93 nM, respectively.

On to `O=C(O)c1ccc(-c2cc(NCCc3ccc(F)c4ccccc34)ncn2)cc1OC1CCC1` [Example 20, 2-Cyclobutoxy-4-{6-[2-(4-fluoro-naphthalen-1-yl)-ethylamino]-pyrimidin-4-yl}-benzoic acid], for which the IC50 on PTGER2 (EP2) came to 73 nM; against EP4, 680 nM; on EP2, 199 nM.

Consider `CCOc1cc(-c2cc(NCCc3cccc4cc(C)[nH]c34)ncn2)sc1C(=O)O` [Example 37, 3-Ethoxy-5-{6-[2-(2-methyl-1H-indol-7-yl)-ethylamino]-pyrimidin-4-yl}-thiophene-2-carboxylic acid], for which the IC50 at PTGER2 (EP2) came out at 126 nM; against EP4 it was 596 nM; at EP2 it was 53 nM.

For the molecule `CCOc1cc(-c2cc(NCCc3c(OC)ccc4ccccc34)ncn2)ccc1OCC(=O)O` [Example 47, (2-Ethoxy-4-{6-[2-(2-methoxy-naphthalen-1-yl)-ethylamino]-pyrimidin-4-yl}-phenoxy)-acetic acid], the IC50 at PTGER2 (EP2) was 45 nM; at EP4, 654 nM; against EP2, 123 nM.

For the molecule `CCOc1cc(-c2cc(NCCc3c(C)ccc4ccccc34)ncn2)ccc1OCC(=O)O` [Example 48, (2-Ethoxy-4-{6-[2-(2-methyl-naphthalen-1-yl)-ethylamino]-pyrimidin-4-yl}-phenoxy)-acetic acid], the IC50 at PTGER2 (EP2) worked out at 22 nM; against EP4, 729 nM; on EP2, 147 nM.

Regarding `CCOc1cc(-c2cc(NCCc3cccc4ccsc34)ncn2)ccc1OCC(=O)O` [Example 104], the IC50 on EP4 worked out at 356 nM; at EP2 it was 335 nM.

With `CCOc1cc(-c2cc(NCCc3cccc4ccsc34)ncn2)ccc1CC(=O)O` [Example 105, {4-[6-(2-Benzo[b]thiophen-7-yl-ethylamino)-pyrimidin-4-yl]-2-ethoxy-phenyl}-acetic acid], the IC50 at EP4 was 685 nM; at EP2 it was 784 nM.

For `CCOc1cc(-c2cc(NCCc3cccc4sccc34)ncn2)ccc1C(=O)O` [Example 106, 4-[6-(2-Benzo[b]thiophen-4-yl-ethylamino)-pyrimidin-4-yl]-2-ethoxy-benzoic acid], the IC50 came out at 867 nM against EP4 and 258 nM against EP2.

On to `CCOc1cc(-c2cc(NCCc3cccc4sccc34)ncn2)ccc1OCC(=O)O` [Example 109], for which the IC50 on EP4 is 452 nM; on EP2, 726 nM.

As to `CCOc1cc(-c2cc(NCCc3cccc4sccc34)ncn2)ccc1CC(=O)O` [Example 110, {4-[6-(2-Benzo[b]thiophen-4-yl-ethylamino)-pyrimidin-4-yl]-2-ethoxy-phenyl}-acetic acid], the IC50 at EP4 was 597 nM; at EP2, 878 nM.

Take `COc1ccc2cccc(CCNc3cc(-c4cc(C(F)(F)F)c(C(=O)O)s4)ncn3)c2n1` [Example 150, 5-{6-[2-(2-Methoxy-quinolin-8-yl)-ethylamino]-pyrimidin-4-yl}-3-trifluoromethyl-thiophene-2-carboxylic Acid]: the IC50 stood at 321 nM on EP4 and 524 nM on EP2.

Turning to `COc1ccc2ccccc2c1CCNc1cc(-c2cc(OCCO)c(C(=O)O)s2)ncn1` [Example 156, 3-(2-Hydroxy-ethoxy)-5-{6-[2-(2-methoxy-naphthalen-1-yl)-ethylamino]-pyrimidin-4-yl}-thiophene-2-carboxylic acid], the IC50 on EP4 worked out at 51 nM; against EP2, 7 nM.
